Results as given in patent US8492379B2, “Translocator protein ligands” (The University of Sydney, priority 2007, dated 2013).

Target: TSPO in microglia (Rattus norvegicus (Rat), UniProt P16257)
Experiment: not given
Details: quinolinic acid-injected rat striatum; cited from earlier work

Sequence of TSPO in microglia (P16257 whole entry): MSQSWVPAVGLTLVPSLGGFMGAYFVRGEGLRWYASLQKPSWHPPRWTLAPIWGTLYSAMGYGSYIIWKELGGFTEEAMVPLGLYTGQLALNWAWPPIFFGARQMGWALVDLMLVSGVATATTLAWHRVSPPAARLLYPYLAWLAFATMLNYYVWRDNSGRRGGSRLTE

In the case of `CCC(C)N(C)C(=O)c1cc2ccccc2c(-c2ccccc2Cl)n1` (centres unmarked) [PK 11195], the “effect on microglial activation and neuronal death” value is given as “reduces microglial activation and neuronal death”.

Target: TSPO (Rattus norvegicus (Rat), UniProt P16257)
Experiment: In vitro binding affinity, 3H-PK11195 displacement in kidney mitochondria
Details: 0.6 nM 3H-PK11195, mitochondria from kidneys of male Wistar rats, 90 min at 4° C.
Experimental: 3H-PK11195 (specific activity 322 GBq/mmol) and 3H-Ro 15-1788 (specific activity 311 GBq/mmol) were purchased from Dupont-New England Nuclear. For binding studies, mitochondria were prepared as described in Trapani G., et al. J Med Chem. 1997; 40:3109-3118, with minor modifications as described here, from the kidneys of male Wistar rats killed by cervical dislocation. The kidneys were homogenized in 20 volumes of ice-cold 50 mM Tris-HCl (pH 7.4), 0.32 M sucrose, and 1 mM ethylenediaminetetraacetic acid (buffer A) containing protease inhibitors (benzamidine at […], bacitracin at […], and soybean trypsin inhibitor at […]) with a Teflon (DuPont) pestle in a glass homogenizer and centrifuged at 600 g for 10 min at 4° C. The resulting supernatant was centrifuged at 10,000 g for 10 min at 4° C. The pellet was suspended in 20 volumes of ice cold buffer A and centrifuged at 10,000 g for 10 min at 4° C. The crude mitochondrial pellet was frozen at −20° C. until the time of the assay or incubated with 0.6 nM 3H-PK11195 in 50 mM Tris-HCl (pH 7.4) (buffer B) with a range of concentrations of the tested compounds (0.1 nM-10 mM) in a total volume of 0.5 mL for 90 min at 4° C. The incubation was terminated by dilution to 5 mL with icecold buffer B; this step was followed immediately by rapid filtration through glass fiber Whatman GF/C filters. The filters were washed (2.5 mL) with buffer B, and the amount of radioactivity retained on the filters was determined with a Packard 1600 TR liquid scintillation counter at 66% efficiency. Nonspecific binding was estimated for each sample in the presence of unlabeled 1 mM PK11195. The 50% inhibitory concentrations were determined, and the dissociation constant (Ki) values were derived according to a previously derived equation (Cheng Y., et al. Biochem Pharmacol. 1973; 22:3099-3108). The protein concentration was estimated by the method of Lowry et al. (J Biol Chem. 1951; 193:265-275) with bovine serum albumin (Sigma-Aldrich) as the standard.

Sequence of TSPO (P16257 whole entry, looked up): as the sequence (P16257 whole entry) above

`CCN(CC)C(=O)C(Oc1ccccc1-n1cccc1)c1ccc(OC)cc1` (centres unmarked) and `CCN(CC)C(=O)C(Oc1ccc(Cl)cc1-n1cccc1)c1ccc(OC)cc1` (centres unmarked) are within 1.5-fold of each other in Ki: 5 nM for the first, 5.7 nM for the second.

`CCN(CC)C(=O)Cc1c(-c2ccc(Cl)cc2)nc2c(C)cc(C)nn12` and `CCN(CC)C(=O)Cc1c(-c2ccc(C)cc2)nc2c(C)cc(C)nn12` are within 1.5-fold of each other in Ki: 0.45 nM for the first, 0.46 nM for the second.

First: CCN(CC)C(=O)C(Oc1cccnc1-n1cccc1)c1ccc(OC)cc1 (centres unmarked)
Second: CCN(CC)C(=O)Cc1c(-c2ccc(F)cc2)nc2c(C)cc(C)nn12
The Ki of the first is 1.7-fold higher: 4 nM for the first, 2.4 nM for the second. The second binds more tightly here.

Work on `CCN(CC)C(=O)Cc1c(-c2ccc(Br)cc2)nc2c(C)cc(C)nn12` yielded a Ki of 0.97 nM.
